Source: EP0252380B1, “Antibiotic LL-E19020 alpha and beta” (AMERICAN CYANAMID COMPANY, priority 1986, dated 1988)
In brackets after ≈: the same amount, converted by molar mass. Marks after values point to notes of the source that are not given here.

How the values were obtained:
[1] = test system: Bordetella bronchiseptica; assay: Minimum inhibitory concentration by agar dilution (Table VI); assay type: cell-based; conditions: 4 strains tested
[2] = test system: Pseudomonas aeruginosa; assay: In vitro antibacterial activity, standard agar dilution method (Table II); assay type: cell-based; conditions: strain 12-4-4
[3] = test system: Caenorhabditis elegans; assay: Control of the free living nematode Caenorhabditis elegans (motility rating); assay type: cell-based; set-up: key: 9 = worms immobile or dead within 4 hours post immersion in microfilter test solution; 8 = no motility; 7 = markedly reduced motility in approximately 95% of worms; 6 = reduced motility; 5 = slightly reduced motility; 0 = normal motility, same as controls; conditions: 150 ppm; motility of adults and larvae
Description: Culture Maintenance: Cultures of C. elegans (Bristol strain from J. Lewis) are maintained on E. coli lawns on NG Agar Plates at 20 C. New cultures are established weekly. Nematodes for testing are washed from 4-5 day old cultures using Fresh Ascaris ringers Solution (FARS). The worms are further washed with FARS, containing gentamycin, to reduce bacterial contamination and centrifuged to separate worms from wash solution. This procedure is repeated three times. The washed worms are than added to C. briggsae Maintenance Medium (CbMM), from GIBCO^a to which is added gentamycin (600 units/ml) and mycostatin (0.5 mg.ml). ^aGIBCO Laboratories, 3175 Staley Road, Grand Island, N.Y. 14027, USA Compounds are dissolved in acetone and made up to volume with equal parts of water. The final test concentration of each compound in the mixture is 150 ppm. The test material is micropipetted (25 ul) into a single well of a 96-well sterile tissue culture plate (COSTAR)^b and the solvent allowed to evaporate. These "treated" plates are used immediately or stored in a freezer without apparent adverse effects on the compounds. ^b205 Broadway, Cambridge, MA 02139, USA […] […] Immediately prior to reading the plate, it is gently tapped to stimulate the movement of the worms. Activity is judged subjectively, but semi-quantitatively, based on the drug effects on motility of the adults and larvae. […]

[4] = test system: Pasteurella multocida 31081B; assay: Pasteurella disk test (primary in vitro disk diffusion test); conditions: disks soaked in 2.5 mg/ml solution; strain 31081B
[5] = test system: Trichostrongylus colubriformis; assay: Trichostrongylus colubriformis/gerbil anthelmintic evaluation; assay type: in vivo, Gerbils
Method: Gerbils are infected with 400 infective larvae of the sheep parasite, T. colubriformis on a day 0. On day 7 gerbils are divided into test and untreated control groups of 2-3 animals. Drug is administered in the feed and are fed from day 7-11. Drugs may also be given by gavage (single oral dose) or injected subcutaneously. Single doses are usually administered on day 7. Gerbils are killed on day 11 and small intestines removed. The number of T. colubriformis remaining in the intestines of treated animals are counted and compared to the number remaining in the untreated controls.

[6] = test system: Streptococcus pneumoniae; assay: In vitro antibacterial activity, standard agar dilution method (Table II); assay type: cell-based
[7] = test system: Staphylococcus epidermidis; assay: as above; assay type: cell-based; conditions: strain IO-83-58
[8] = test system: Escherichia coli; assay: Minimum inhibitory concentration by agar dilution (Table VI); assay type: cell-based; conditions: 2 strains tested
[9] = test system: Staphylococcus saprophyticus; assay: In vitro antibacterial activity, standard agar dilution method (Table II); assay type: cell-based; conditions: strain VHG-84-50
[10] = test system: Enterococcus; assay: as above; assay type: cell-based
[11] = test system: Bacteroides fragilis; assay: as above; assay type: cell-based; conditions: strain NYC 77-1
[12] = test system: Streptococcus uberis; assay: Minimum inhibitory concentration by agar dilution (Table VI); assay type: cell-based; conditions: 1 strain tested
[13] = test system: Treponema hyodysenteriae; assay: Minimum inhibitory concentration by microdilution (Table VII); assay type: cell-based
[14] = test system: Pasteurella multocida; assay: Minimum inhibitory concentration by agar dilution (Table VI); assay type: cell-based; conditions: 6 strains tested
[15] = test system: Mycoplasma gallisepticum "R"; assay: Minimum inhibitory concentration assay for Mycoplasma gallisepticum (microdilution, Table VII); conditions: microdilution; "R" strain
[16] = Weight gain and feed efficiency of broiler chicks (Example 6, Table IX); assay type: in vivo, Peterson X Arbor Acres chicks; conditions: for Wg Gains And Feed Efficiency % Improvement Over Controls FEED/GAIN: control 1.41
[17] = test system: Streptococcus agalactiae; assay: Minimum inhibitory concentration by agar dilution (Table VI); assay type: cell-based; conditions: 4 strains tested
[18] = test system: Pasteurella haemolytica; assay: as above; assay type: cell-based; conditions: 3 strains tested
[19] = test system: Staphylococcus aureus; assay: In vitro antibacterial activity, standard agar dilution method (Table II); assay type: cell-based
[20] = test system: Pasteurella haemolytica 30660; assay: Pasteurella disk test (primary in vitro disk diffusion test); assay type: cell-based; conditions: disks soaked in 2.5 mg/ml solution; strain 30660
[21] = test system: Enterobacter cloacae; assay: In vitro antibacterial activity, standard agar dilution method (Table II); assay type: cell-based; conditions: strain VGH-84-37
[22] = test system: Staphylococcus aureus Smith; assay: In vivo antibacterial activity in infected mice (Table III); conditions: S. aureus Smith, 30 minutes before infection

C/C=C/C=C/[C@@H]1O[C@](O)([C@H](CO[C@H]2C[C@H](OC)[C@H](O[C@@H]3C[C@H](OC)[C@@H](O[C@H]4C[C@H](OC)[C@H](O)[C@H](C)O4)[C@H](C)O3)[C@H](C)O2)C(=O)NC/C=C/C=C(\C)[C@H](OC)[C@@H](C)[C@@H]2C[C@H](O)[C@@H](/C=C/C=C/C=C\C(=O)O)O2)[C@@H](O)[C@H](OC(=O)Cc2ccccc2)C1(C)C [LL-E19020 beta]
MIC [1]: > 256 µg/mL
Minimal Inhibitory Concentration [2]: >128 µg/mL
Rating [3]: 9 (immobile or dead)
ZONE SIZE [4]: 13 mm
% Worms Removed ([5]; 5 m/kg single oral dose): 19%
% Worms Removed ([5]; 62.5 ppm diet, fed day 7-11): 32%
% Worms Removed ([5]; 150 ppm diet, fed day 7-11): 86%
% Worms Removed ([5]; 250 ppm diet, fed day 7-11): 100%
Minimal Inhibitory Concentration ([6]; strain K-84-21): 0.5 µg/mL
Minimal Inhibitory Concentration ([6]; strain SVI): 1 µg/mL
Minimal Inhibitory Concentration ([6]; strain VGH-84-56): 0.5 µg/mL
Minimal Inhibitory Concentration ([6]; strain VGH-84-57): 1 µg/mL
Minimal Inhibitory Concentration ([6]; strain VGH-84-58): 0.25 µg/mL
Minimal Inhibitory Concentration ([6]; strain VGH-84-59): 0.25 µg/mL
Minimal Inhibitory Concentration [7]: > 128 µg/mL
MIC [8]: ≧ 256 µg/ml
Minimal Inhibitory Concentration [9]: > 128 µg/mL
Minimal Inhibitory Concentration ([10]; strain CMC-83-72): >128 µg/mL
Minimal Inhibitory Concentration ([10]; strain IO-83-28): >128 µg/mL
Minimal Inhibitory Concentration ([10]; strain IO-83-40): >128 µg/mL
Minimal Inhibitory Concentration ([10]; strain VGH-84-65): >128 µg/mL
Minimal Inhibitory Concentration ([10]; strain VGH-84-68): >128 µg/mL
Minimal Inhibitory Concentration [11]: >128 µg/mL
MIC [12]: 4 µg/mL (≈ 3.26 µM)
MIC ([13]; strain B78 (ATCC 27164)): 1 µg/mL (≈ 0.815 µM)
MIC ([13]; strain B204 (ATCC 31212)): 0.5 µg/mL (≈ 0.408 µM)
MIC [14]: 8 to 16 µg/mL
MIC [15]: 0.125 µg/mL (≈ 0.102 µM)
Wg Gains And Feed Efficiency % Improvement Over Controls COMBINED ([16]; 12.5 PPM in diet): 2.6%
Wg Gains And Feed Efficiency % Improvement Over Controls FEMALES ([16]; 12.5 PPM in diet): 6.0%
Wg Gains And Feed Efficiency % Improvement Over Controls MALES ([16]; 12.5 PPM in diet): 0%
Wg Gains And Feed Efficiency % Improvement Over Controls FEED/GAIN ([16]; 12.5 PPM in diet): 1.33**
Wg Gains And Feed Efficiency % Improvement Over Controls COMBINED ([16]; 25 PPM in diet): 3.4%
Wg Gains And Feed Efficiency % Improvement Over Controls FEMALES ([16]; 25 PPM in diet): 5.1%
Wg Gains And Feed Efficiency % Improvement Over Controls MALES ([16]; 25 PPM in diet): 2.4%
Wg Gains And Feed Efficiency % Improvement Over Controls FEED/GAIN ([16]; 25 PPM in diet): 1.38*
Wg Gains And Feed Efficiency % Improvement Over Controls COMBINED ([16]; 50 PPM in diet): 2.2%
Wg Gains And Feed Efficiency % Improvement Over Controls FEMALES ([16]; 50 PPM in diet): 4.6%
Wg Gains And Feed Efficiency % Improvement Over Controls MALES ([16]; 50 PPM in diet): 0%
Wg Gains And Feed Efficiency % Improvement Over Controls FEED/GAIN ([16]; 50 PPM in diet): 1.38*
Wg Gains And Feed Efficiency % Improvement Over Controls COMBINED ([16]; 100 PPM in diet): 4.5%
Wg Gains And Feed Efficiency % Improvement Over Controls FEMALES ([16]; 100 PPM in diet): 7.2%
Wg Gains And Feed Efficiency % Improvement Over Controls MALES ([16]; 100 PPM in diet): 1.7%
Wg Gains And Feed Efficiency % Improvement Over Controls FEED/GAIN ([16]; 100 PPM in diet): 1.34**
Wg Gains And Feed Efficiency % Improvement Over Controls COMBINED ([16]; 200 PPM in diet): 2.7%
Wg Gains And Feed Efficiency % Improvement Over Controls FEMALES ([16]; 200 PPM in diet): 1.4%
Wg Gains And Feed Efficiency % Improvement Over Controls MALES ([16]; 200 PPM in diet): 4.2%
Wg Gains And Feed Efficiency % Improvement Over Controls FEED/GAIN ([16]; 200 PPM in diet): 1.35**
MIC [17]: 2 to 4 µg/mL
MIC [18]: 16 µg/mL (≈ 13 µM)
Minimal Inhibitory Concentration ([19]; strain ATCC 25923): > 256 µg/mL
Minimal Inhibitory Concentration ([19]; strain CMC-83-127): > 128 µg/mL
Minimal Inhibitory Concentration ([19]; strain CMC-83-131): > 128 µg/mL
Minimal Inhibitory Concentration ([19]; strain CMC-83-132): > 128 µg/mL
Minimal Inhibitory Concentration ([19]; strain SSC-82-57): > 128 µg/mL
Minimal Inhibitory Concentration ([19]; strain Smith): > 128 µg/mL
Minimal Inhibitory Concentration ([19]; strain VGH-84-45): > 128 µg/mL
ZONE SIZE [20]: 13 mm
Minimal Inhibitory Concentration [21]: >128 µg/mL
Survival Ratios 7 Days After Infection ([22]; single subcutaneous dose 4 mg/kg): 1/5
Survival Ratios 7 Days After Infection ([22]; single subcutaneous dose 16 mg/kg): 1/5
Survival Ratios 7 Days After Infection ([22]; single subcutaneous dose 64 mg/kg): 1/5
Survival Ratios 7 Days After Infection ([22]; single subcutaneous dose 256 mg/kg): 1/5
